The values that follow come from ChEMBL document CHEMBL5331131, “Discovery of Acyl-Indole Derivatives as Pan-Serotype Dengue Virus NS4B Inhibitors” (J Med Chem, 2023).

In brackets after ≈: the same amount, converted by molar mass.

A short description of series [1]: Microsomal stability in human liver microsomes assessed as intrinsic clearance preincubated for 5 mins followed by NADPH addition measured upto 60 mins by LC-MS/MS analysis. The format is ADME, Microsome. Conditions: time < 65 min, read-out: CLH.
The nature of series [2]: Microsomal stability in rat liver microsomes assessed as intrinsic clearance preincubated for 5 mins followed by NADPH addition measured upto 60 mins by LC-MS/MS analysis. The format is ADME, Microsome. Conditions: time < 65 min, read-out: CLH.
Series [3] can be described thus: Microsomal stability in mouse liver microsomes assessed as intrinsic clearance preincubated for 5 mins followed by NADPH addition measured upto 60 mins by LC-MS/MS analysis. In kind it is ADME, Microsome. Conditions: time < 65 min, read-out: CLH.
For a further series, the system named is dengue virus type 1. Put plainly: Antiviral activity against DENV-1 TC974#666 infected in african green monkey Vero cells incubated for 24 hrs measured after 3 days post infection. The format is functional, organism-based. The conditions noted are these: TC974#666, Vero.
In a further series the test system is dengue virus type 3. Put plainly: Antiviral activity against DENV-3 H87 infected in african green monkey Vero cells incubated for 24 hrs measured after 3 days post infection. The format is functional, organism-based.
A further series relates to dengue virus type 4. Put plainly: Antiviral activity against DENV-4 H241 infected in african green monkey Vero cells incubated for 24 hrs measured after 3 days post infection. The format is functional, organism-based.
Series [4] is described as follows: Clearance in Sprague-Dawley rat at 2.5 mg/kg, iv measured upto 24 hrs by LC-MS/MS analysis. In kind it is ADME, organism-based. The conditions noted are these: in vivo.
Series [5] is described as follows: Clearance in CD-1 mouse at 2.5 mg/kg, iv measured for 0.12 to 24 hrs by LC-MS/MS analysis. In kind it is ADME, organism-based. The conditions noted are these: in vivo, time 0.12-24 hrs.
Series [6] deals with dengue virus type 2. Description: Antiviral activity against DENV-2 16681 infected in african green monkey Vero cells incubated for 24 hrs measured after 3 days post infection. In kind it is functional, organism-based. The conditions noted are these: Dengue virus, 16681, Vero.
Series [7] in a line: Volume of distribution at steady state in Sprague-Dawley rat at 2.5 mg/kg, iv measured upto 24 hrs by LC-MS/MS analysis. In kind it is ADME, organism-based. The conditions noted are these: in vivo, read-out: Vdss.
The nature of series [8]: Half life in Sprague-Dawley rat at 2.5 mg/kg, iv measured by LC-MS/MS analysis. The format is ADME, organism-based. Conditions: in vivo.
Series [9] can be described thus: Cmax in Sprague-Dawley rat at 10 mg/kg, po measured upto 24 to 48 hrs by LC-MS/MS analysis. Further details: time upper 48 hrs, dose 10 mg/kg, time lower 24 hrs, route po. The format is ADME, organism-based. The conditions noted are these: in vivo.
A short description of series [10]: AUC last in Sprague-Dawley rat at 10 mg/kg, po measured upto 24 to 48 hrs by LC-MS/MS analysis. The format is ADME, organism-based. Further details: time upper 48 hrs, dose 10 mg/kg, time lower 24 hrs, route po. The conditions noted are these: in vivo.
The nature of series [11]: Oral bioavailability in Sprague-Dawley rat at 10 mg/kg measured upto 24 to 48 hrs by LC-MS/MS analysis. The format is ADME, organism-based. Conditions: in vivo, time 24-48 hrs.
A short description of series [12]: Kinetic solubility of the compound in aqueous buffer at pH 7.4 measured after 4 hrs by UPLC/UV analysis. In kind it is physicochemical. Conditions: read-out: Kinetic_solubility.
A short description of series [13]: Metabolic stability in human hepatocytes assessed as intrinsic clearance measured per million cells incubated upto 120 mins by MS analysis. In kind it is ADME, cell-based, Hepatocyte. Conditions: read-out: CLH.
The target in series [14] is Voltage-gated inwardly rectifying potassium channel KCNH2 (Homo sapiens, UniProt Q12809). Put plainly: Displacement of [3H]Dofetilide from human ERG. In kind it is toxicity.
Sequence of Voltage-gated inwardly rectifying potassium channel KCNH2 (Q12809 whole entry): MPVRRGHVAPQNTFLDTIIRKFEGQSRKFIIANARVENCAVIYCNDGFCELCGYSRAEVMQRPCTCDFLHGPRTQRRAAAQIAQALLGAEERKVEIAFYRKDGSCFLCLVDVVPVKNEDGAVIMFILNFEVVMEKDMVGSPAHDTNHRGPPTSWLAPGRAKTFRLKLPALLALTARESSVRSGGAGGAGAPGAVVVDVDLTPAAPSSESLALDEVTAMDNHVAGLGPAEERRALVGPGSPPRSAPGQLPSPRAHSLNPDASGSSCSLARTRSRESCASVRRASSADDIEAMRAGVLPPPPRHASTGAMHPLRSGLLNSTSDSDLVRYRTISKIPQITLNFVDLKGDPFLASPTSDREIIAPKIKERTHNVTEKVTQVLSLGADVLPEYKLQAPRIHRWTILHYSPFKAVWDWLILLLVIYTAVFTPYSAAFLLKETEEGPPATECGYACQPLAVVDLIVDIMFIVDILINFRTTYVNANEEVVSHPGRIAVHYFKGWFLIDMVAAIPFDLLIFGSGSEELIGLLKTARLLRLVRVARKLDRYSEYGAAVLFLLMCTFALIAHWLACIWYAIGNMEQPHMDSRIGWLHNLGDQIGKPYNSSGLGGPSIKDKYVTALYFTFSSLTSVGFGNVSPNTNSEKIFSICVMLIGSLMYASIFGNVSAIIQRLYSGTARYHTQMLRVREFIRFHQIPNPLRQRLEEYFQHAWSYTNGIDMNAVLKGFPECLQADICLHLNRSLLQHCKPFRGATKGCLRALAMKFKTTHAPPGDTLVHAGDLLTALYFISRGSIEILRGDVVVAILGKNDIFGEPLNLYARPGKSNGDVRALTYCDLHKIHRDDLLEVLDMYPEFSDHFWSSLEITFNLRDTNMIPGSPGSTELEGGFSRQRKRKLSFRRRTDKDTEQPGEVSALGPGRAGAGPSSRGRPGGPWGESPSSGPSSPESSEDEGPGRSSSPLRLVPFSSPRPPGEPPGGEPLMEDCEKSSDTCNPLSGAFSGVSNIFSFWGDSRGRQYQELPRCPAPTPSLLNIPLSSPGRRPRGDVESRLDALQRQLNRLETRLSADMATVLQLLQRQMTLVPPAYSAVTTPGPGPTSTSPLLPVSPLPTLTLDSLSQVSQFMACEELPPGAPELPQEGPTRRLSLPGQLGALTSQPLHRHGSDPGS
The nature of series [15]: Volume of distribution at steady state in CD-1 mouse at 2.5 mg/kg, iv measured for 0.12 to 24 hrs by LC-MS/MS analysis. The format is ADME, organism-based. Conditions: in vivo, time 0.12-24 hrs, read-out: Vdss.
A short description of series [16]: Half life in CD-1 mouse at 2.5 mg/kg, iv measured by LC-MS/MS analysis. In kind it is ADME, organism-based. The conditions noted are these: in vivo.
Series [17] can be described thus: Cmax in CD-1 mouse at 3 mg/kg, po measured for 0.5 to 24 hrs by LC-MS/MS analysis. In kind it is ADME, organism-based. Further details: time 0.5-24 hrs, dose 3 mg/kg, route po. Conditions: in vivo.
The nature of series [18]: AUC last in CD-1 mouse at 3 mg/kg, po measured for 0.5 to 24 hrs by LC-MS/MS analysis. The conditions noted are these: in vivo. On the set-up: time upper 24 hrs, time lower 0.5 hrs, dose 3 mg/kg, route po. In kind it is ADME, organism-based.
Series [19] can be described thus: Oral bioavailability in CD-1 mouse at 3 mg/kg measured for 0.5 to 24 hrs by LC-MS/MS analysis. In kind it is ADME, organism-based. Conditions: in vivo, time 0.5-24 hrs.
Series [20] in a line: Cmax in CD-1 mouse at 10 mg/kg, po measured for 0.5 to 24 hrs by LC-MS/MS analysis. The format is ADME, organism-based. On the set-up: dose 10 mg/kg, time 0.5-24 hrs, route po. The conditions noted are these: in vivo.
Series [21] is described as follows: AUC last in CD-1 mouse at 10 mg/kg, po measured for 0.5 to 24 hrs by LC-MS/MS analysis. Conditions: in vivo. In kind it is ADME, organism-based. On the set-up: dose 10 mg/kg, time 0.5-24 hrs, route po.
A short description of series [22]: Oral bioavailability in CD-1 mouse at 10 mg/kg measured for 0.5 to 24 hrs by LC-MS/MS analysis. The conditions noted are these: in vivo, time 0.5-24 hrs. In kind it is ADME, organism-based.
Series [23] can be described thus: Cmax in CD-1 mouse at 1 mg/kg, po measured for 0.5 to 24 hrs by LC-MS/MS analysis. The format is ADME, organism-based. Further details: dose 1 mg/kg, time 0.5-24 hrs, route po. The conditions noted are these: in vivo.
A short description of series [24]: AUC last in CD-1 mouse at 1 mg/kg, po measured for 0.5 to 24 hrs by LC-MS/MS analysis. Conditions: in vivo. The format is ADME, organism-based. Further details: dose 1 mg/kg, time 0.5-24 hrs, route po.
A short description of series [25]: Oral bioavailability in CD-1 mouse at 1 mg/kg measured for 0.5 to 24 hrs by LC-MS/MS analysis. The format is ADME, organism-based. The conditions noted are these: in vivo, time 0.5-24 hrs.
The test system of series [26] is dengue virus type 2. Description: In vivo antiviral activity against DENV-2/RL infected in AG129 mouse assessed as viral load reduction administered at 1 to 30 mg/kg, po bid for 3 days. Conditions: dose 1-30 mg/kg, time 3.0 day. In kind it is functional, organism-based.
The test system of series [27] is dengue virus type 2. Put plainly: In vivo antiviral activity against DENV-2/RL infected in AG129 mouse assessed as viral load reduction in plasma administered at 30 mg/kg, po bid for 3 days. The conditions noted are these: time 3 day. The format is functional.
Series [28] relates to dengue virus type 2. Put plainly: In vivo antiviral activity against DENV-2/RL infected in AG129 mouse assessed as viral load reduction administered at 3 to 30 mg/kg, po bid for 3 days. In kind it is functional, organism-based. The conditions noted are these: dose 3-30 mg/kg, time 3.0 day.
Series [29] can be described thus: Cmax in CD-1 mouse at 30 mg/kg, po measured for 0.5 to 24 hrs by LC-MS/MS analysis. The format is ADME, organism-based. On the set-up: time upper 24 hrs, dose 30 mg/kg, time lower 0.5 hrs, route po. The conditions noted are these: in vivo.
The nature of series [30]: AUC last in CD-1 mouse at 30 mg/kg, po measured for 0.5 to 24 hrs by LC-MS/MS analysis. In kind it is ADME, organism-based. Further details: time upper 24 hrs, time lower 0.5 hrs, dose 30 mg/kg, route po. Conditions: in vivo.
A short description of series [31]: Oral bioavailability in CD-1 mouse at 30 mg/kg measured for 0.5 to 24 hrs by LC-MS/MS analysis. In kind it is ADME, organism-based. The conditions noted are these: in vivo, time 0.5-24 hrs.

As for `COc1cc(NC(C(=O)c2c[nH]c3cc(OC)c(C)cc23)c2ccc(Cl)cc2OC)cc(OCCO)c1` (single isomer, unassigned; (+)), the microsomal CLint in [1], in [2] and in [3] was less than 8 µL/min/mg in each case. Besides, the EC50 in the series on dengue virus type 1 amounted to 4 nM; with dengue virus type 3 it was 26 nM; in the series on dengue virus type 4 (Dengue virus, H241, Vero), 84 nM; in the series on dengue virus type 2 [6], 1 nM. In addition, the clearance in series [4] was 6.8 mL/min/kg; in [5] it was 6.3 mL/min/kg. Moreover, the results for the Vd in series [7] and in series [15] were 6.8 L/kg and 3.3 L/kg, respectively. The half-life is 11.5 h in series [8] and 6.2 h in series [16]. The Cmax came out at 365 ng/mL in series [9], 345 ng/mL in [17], 1760 ng/mL in series [20] and 83 ng/mL in series [23]. For the same molecule, the AUC(0-t) in [10] stood at 8390 ng·h/mL; in series [18], 4050 ng·h/mL; in series [21], 19100 ng·h/mL; in [24] it was 872 ng·h/mL. Moreover, the bioavailability in [11] amounted to 45%; in series [19], 54%; in [22], 76%; in series [25], 35%. For the same molecule, in [12], the solubility kinetic at 4 h worked out at 0.2 µM (≈ 0.105 µg/mL). Besides, the hepatocyte CLint in series [13] was less than 1.9 µL/min/1e6 cells. The half-inhibitory concentration (IC50) in series [14] is more than 10000 nM. Moreover, the Activity result with dengue virus type 2 [26] is “Dose-Dependent Effect”; in the series on dengue virus type 2 [27], 2.9 log10/ml.

Take `COc1cc(NC(C(=O)c2c[nH]c3cc(F)ccc23)c2ccc(Cl)cc2OC)cc(OCCO)c1` (single isomer, unassigned; (+)) [listing 1 of 2 here]: the Activity entry with dengue virus type 2 [28] is “Dose-Dependent Effect”.

For the molecule `COc1cc(NC(C(=O)c2c[nH]c3cc(F)ccc23)c2ccc(Cl)cc2OC)cc(OCCO)c1` (single isomer, unassigned; (+)) [listing 2 of 2 here], the microsomal CLint in series [1] was less than 8 µL/min/mg; in [2] it was 9 µL/min/mg; in series [3], 32 µL/min/mg. The figures for the concentration for a half-maximal effect (EC50) with dengue virus type 1, in the series with dengue virus type 3 and in the series on dengue virus type 4 (vero) were 8 nM, 63 nM and 240 nM, respectively. In addition, the clearance worked out at 46.2 mL/min/kg in [4] and 16.6 mL/min/kg in series [5]. Also, the Vd was 10.1 L/kg in [7] and 2 L/kg in series [15]. The half-life in [8] is 6.4 h; in series [16] it was 2 h. The highest concentration (Cmax) was found to be 192 ng/mL in series [9], 435 ng/mL in [17], 1720 ng/mL in [20] and 5100 ng/mL in series [29]. For the same molecule, the AUC(0-t) in series [10] is 2430 ng·h/mL; in series [18] it was 1410 ng·h/mL; in series [21], 6030 ng·h/mL; in [30], 29500 ng·h/mL. Moreover, the bioavailability in [11] came out at 69%; in series [19], 40%; in series [22], 52%; in series [31] it was 85%. Further, the solubility kinetic at 4 h in series [12] was 1 µM (≈ 0.499 µg/mL). Also, in series [13], the hepatocyte CLint is less than 1.9 µL/min/1e6 cells. Moreover, the IC50 in [14] worked out at 10000 nM. Moreover, in the series with dengue virus type 2 [27], the Activity is recorded as 2 log10/ml.
